This note sets out measurements from US7317007B2, “Benzothiazole derivatives with activity as adenosine receptor ligands” (Hoffmann-La Roche Inc., priority 2000, dated 2008).

As a reminder, the melting point is the temperature of the solid-liquid transition.

Counter-ions that a name gives are not always drawn.

For one data set, the target named is T1, human adenosine A2A receptor (Homo sapiens, UniProt P29274).
T1 construct: expressed in transfected cells; host or cells: CHO cells, Semliki Forest virus expression system; washed membrane pellet used
T1 sequence (P29274 whole entry): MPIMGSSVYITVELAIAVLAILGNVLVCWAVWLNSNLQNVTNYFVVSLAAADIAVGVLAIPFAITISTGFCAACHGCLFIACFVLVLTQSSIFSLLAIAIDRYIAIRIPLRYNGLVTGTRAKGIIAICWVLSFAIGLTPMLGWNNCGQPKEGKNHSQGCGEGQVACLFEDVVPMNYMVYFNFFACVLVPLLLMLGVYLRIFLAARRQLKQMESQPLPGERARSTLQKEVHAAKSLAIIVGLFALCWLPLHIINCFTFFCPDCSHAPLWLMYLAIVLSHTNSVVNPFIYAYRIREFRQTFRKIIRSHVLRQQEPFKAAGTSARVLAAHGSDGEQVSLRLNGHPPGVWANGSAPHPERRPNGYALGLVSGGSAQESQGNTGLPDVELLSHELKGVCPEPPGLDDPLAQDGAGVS
The experiment in a line: [3H]-SCH-58261 binding assay at the human adenosine A2A receptor. The following applies: read-out: pKi value (converted). Here is the method: Human Adenosine A2A Receptor
The human adenosine A2A receptor was recombinantly expressed in chinese hamster ovary (CHO) cells using the semliki forest virus expression system. Cells were harvested, washed twice by centrifugation, homogenised and again washed by centrifugation. The final washed membrane pellet was suspended in a Tris (50 mM) buffer containing 120 mM NaCl, 5 mM KCl, 2 mM CaCl2 and 10 mM MgCl2 (pH 7.4) (buffer A). The [^3H]-SCH-58261 (Dionisotti et al., 1997, Br J Pharmacol 121, 353; 1 nM) binding assay was carried out in 96-well plates in the presence of 2.5 μg of membrane protein, 0.5 mg of Ysi-poly-1-lysine SPA beads and 0.1 U adenosine deaminase in a final volume of 200 μl of buffer A. Non-specific binding was defined using xanthine amine congener (XAC; 2 μM). Compounds were tested at 10 concentrations from 10 μM-0.3 nM. All assays were conducted in duplicate and repeated at least two times. Assay plates were incubated for 1 hour at room temperature before centrifugation and then bound ligand determined using a Packard Topcount scintillation counter. IC50 values were calculated using a non-linear curve fitting program and Ki values calculated using the Cheng-Prussoff equation.
For `COc1ccc(-c2ccccc2)c2sc(NC(=O)c3ccc(CNCCO)cc3)nc12` [Example 92, 4-[(2-Hydroxy-ethylamino)-methyl]-N-(4-methoxy-7-phenyl-benzothiazol-2-yl)-benzamide hydrochloride salt (1:1)], the Ki was 1.26 nM.

On to `COc1ccc(N2CCOCC2)c2sc(NC(=O)c3cccc(CN4CCCC4)c3)nc12` [Example 289, N-(4-Methoxy-7-morpholin-4-yl-benzothiazol-2-yl)-3-pyrrolidin-1-ylmethyl-benzamide], for which the Ki is 1.26 nM.

`COc1ccc(N2CCOCC2)c2sc(NC(=O)C3CCN(C(=O)OC(C)(C)C)CC3)nc12` [Example 326, 4-(4-Methoxy-7-morpholin-4-yl-benzothiazol-2-ylcarbamoyl)-piperidine-1-carboxylic acid tert-butyl ester]: the Ki is 3.16 nM.

For `COc1ccc(-c2ccccc2)c2sc(NC(=O)c3ccc(C)o3)nc12` [Example 10, 5-Methyl-furan-2-carboxylic acid (4-methoxy-7-phenyl-benzothiazol-2-yl)-amide], the Ki is 1 nM.

For the compound `CCOCCN(CC)Cc1ccc(C(=O)Nc2nc3c(OC)ccc(N4CCOCC4)c3s2)cc1` [Example 301, 4-{[(2-Ethoxy-ethyl)-ethyl-amino]-methyl}-N-(4-methoxy-7-morpholin-4-yl-benzothiazol-2-yl)-benzamide], the Ki was 3.16 nM.

As for `COc1ccc(-c2ccccc2)c2sc(NC(=O)c3ccc(CN)cc3)nc12` [Example 121, 4-Aminomethyl-N-(4-methoxy-7-phenyl-benzothiazol-2-yl)-benzamide hydrochloride salt (1:1)], the Ki is 1 nM.

For `COCc1ccc(C(=O)Nc2nc3c(OC)ccc(N4CCOCC4)c3s2)cc1` [Example 315, 4-Methoxymethyl-N-(4-methoxy-7-morpholin-4-yl-benzothiazol-2-yl)-benzamide], the Ki was 2.51 nM.

Regarding `COc1ccc(N2CCOCC2)c2sc(NC(=O)c3ccccc3)nc12` [Example 277, N-(4-Methoxy-7-morpholin-4-yl-benzothiazol-2-yl)-benzamide], the Ki was 2 nM.

With `COc1ccc(-c2ccccc2)c2sc(NC(=O)c3ccc(F)cc3)nc12` [Example 23, 4-Fluoro-N-(4-methoxy-7-phenyl-benzothiazol-2-yl)-benzamide], the Ki is 1.26 nM.

As to `COC(=O)N(C)Cc1ccc(C(=O)Nc2nc3c(OC)ccc(N4CCOCC4)c3s2)cc1` [Example 369, [4-(4-Methoxy-7-morpholin-4-yl-benzothiazol-2-ylcarbamoyl)-benzyl]-methyl-carbamic acid methyl ester], the Ki is 0.631 nM.

As for `COc1ccc(-c2ccccc2)c2sc(NC(=O)c3ccc(CN4CC[C@H](N(C)C)C4)cc3)nc12` [Example 125, 4-(3 (S)-Dimethylamino-pyrrolidin-1-ylmethyl)-N-(4-methoxy-7-phenyl-benzothiazol-2-yl)-benzamide hydrochlorde salt (1:2)], the Ki was 1 nM.

As for `COc1ccc(-c2ccccc2)c2sc(NC(=O)c3ccc(CN4CCC(O)CC4)cc3)nc12` [Example 108, 4-(4-Hydroxy-piperidin-1-ylmethyl)-N-(4-methoxy-7-phenyl-benzothiazol-2-yl)-benzamide hydrochloride salt (1:1)], the Ki is 1.26 nM.

With `CCOCCN(C)Cc1ccc(C(=O)Nc2nc3c(OC)ccc(N4CCOCC4)c3s2)cc1` [Example 304, 4-{[(2-Ethoxy-ethyl)-methyl-amino]-methyl}-N-(4-methoxy-7-morpholin-4-yl-benzothiazol-2-yl)-benzamide], the Ki was 3.16 nM.

System in a further data set: not given
Assay: not given
Settings: not given
Consider `COc1ccc(-c2cccs2)c2sc(NC(=O)c3ccc(CCl)cc3)nc12` [Example 231, 4-Chloromethyl-N-(4-methoxy-7-thiophen-2-yl-benzothiazol-2-yl)-benzamide], for which the melting point is 183 to 209 °C (dec.).

As for `COc1ccc(-c2csc(N3CCN(C)CC3)n2)c2sc(NC(=O)N3CCOCC3)nc12` [Example 261, Morpholine-4-carboxylic acid {4-methoxy-7-[2-(4-methyl-piperazin-1-yl)-thiazol-4-yl]-benzothiazol-2-yl}-amide], the melting point fell in the range of 150 to 170 °C.

Consider `CCOC(=O)C(=O)Nc1nc2c(OC)ccc(-c3ccccc3)c2s1` [Example 47, N-(4-Methoxy-7-phenyl-benzothiazol-2-yl)-oxalamic acid ethyl ester], for which the melting point fell in the range of 138 to 142 °C.

As to `COc1ccc(-c2csc(N3CCOCC3)n2)c2sc(NC(=O)c3ccc(F)cc3)nc12` [Example 216, 4-Fluoro-N-[4-methoxy-7-(2-morpholin-4-yl-thiazol-4-yl)-benzothiazol-2-yl]-benzamide], the melting point lay in the range of 225 to 227 °C.

Take `COc1ccc(-c2csc(NC(c3ccccc3)(c3ccccc3)c3ccccc3)n2)c2sc(NC(=O)c3ccc(CCl)cc3)nc12` [Example 229, 4-Chloromethyl-N-{4-methoxy-7-[2-(trityl-amino)-thiazol-4-yl]-benzothiazol-2-yl}-benzamide]: the melting point is 163 °C (dec.).

`COCCN(C)Cc1ccc(C(=O)Nc2nc3c(OC)ccc(-c4ccc(C)s4)c3s2)cc1` [Example 243, 4-{[(2-Methoxy-ethyl)-methyl-amino]-methyl}-N-[4-methoxy-7-(5-methyl-thiophen-2-yl)-benzothiazol-2-yl]-benzamide] displayed a melting point of 83 to 90 °C.

`COc1ccc(-c2csc(C)n2)c2sc(NC(=O)c3ccc(F)cc3)nc12` [Example 224, 4-Fluoro-N-[4-methoxy-7-(2-methyl-thiazol-4-yl)-benzothiazol-2-yl]-benzamide] gave a melting point of 217 to 219 °C.

Take `COc1ccc(-c2ccc(C)s2)c2sc(NC(=O)N3CCC(O)CC3)nc12` [Example 266, 4-Hydroxy-piperidine-1-carboxylic acid [4-methoxy-7-(5-methyl-thiophen-2-yl)-benzothiazol-2-yl]-amide]: the melting point is 197 to 204 °C (dec.).

In turn, `COc1ccc(-c2csc(-c3ccccn3)n2)c2sc(NC(=O)c3ccc(CCl)cc3)nc12` [Example 232, 4-Chloromethyl-N-[4-methoxy-7-(2-pyridin-2-yl-thiazol-4-yl)-benzothiazol-2-yl]-benzamide] registered a melting point of 195 to 201 °C.

Take `COc1ccc(-c2ccc(C)s2)c2sc(NC(=O)N3CCOCC3)nc12` [Example 264, Morpholine-4-carboxylic acid [4-methoxy-7-(5-methyl-thiophen-2-yl)-benzothiazol-2-yl]-amide]: the melting point was 173 to 180 °C (dec.).

Consider `COc1ccc(-c2csc(-c3ccccn3)n2)c2sc(NC(=O)c3ccc(F)cc3)nc12` [Example 222, 4-Fluoro-N-[4-methoxy-7-(2-pyridin-2-yl-thiazol-4-yl)-benzothiazol-2-yl]-benzamide], for which the melting point is 150 °C (dec.).

Regarding `COc1ccc(-c2csc(N3CCCCC3)n2)c2sc(NC(=O)N3CCOCC3)nc12` [Example 262, Morpholine-4-carboxylic acid [4-methoxy-7-(2-piperidin-1-yl-thiazol-4-yl)-benzothiazol-2-yl]-amide], the melting point fell in the range of 227 to 234 °C.

The compound `COCCN(C)Cc1ccc(C(=O)Nc2nc3c(OC)ccc(-c4csc(NC(c5ccccc5)(c5ccccc5)c5ccccc5)n4)c3s2)cc1` [Example 236, 4-{[(2-Methoxy-ethyl)-methyl-amino]-methyl}-N-{4-methoxy-7-[2-(trityl-amino)-thiazol-4-yl]-benzothiazol-2-yl}-benzamide] displayed a melting point of 119 to 128 °C.

As for `COc1ccc(-c2ccc(C)s2)c2sc(NC(=O)c3ccc(F)cc3)nc12` [Example 225, 4-Fluoro-N-[4-methoxy-7-(5-methyl-thiophen-2-yl)-benzothiazol-2-yl]-benzamide], the melting point is 192 to 196 °C (dec.).

Compound `COCCN(C)Cc1ccc(C(=O)Nc2nc3c(OC)ccc(-c4csc(N(C)C)n4)c3s2)cc1` [Example 239, N-[7-(2-Dimethylamino-thiazol-4-yl)-4-methoxy-benzothiazol-2-yl]-4-{[(2-methoxy-ethyl)-methyl-amino]-methyl}-benzamide] had a melting point of 85 to 95 °C.

In turn, `COc1ccc(-c2csc(-c3ccc(C)nc3)n2)c2sc(NC(=O)c3ccc(CCl)cc3)nc12` [Example 228, 4-Chloromethyl-N-{4-methoxy-7-[2-(6-methyl-pyridin-3-yl)-thiazol-4-yl]-benzothiazol-2-yl}-benzamide] yielded a melting point of 230 to 250 °C.

For `COc1ccc(-c2cccs2)c2sc(NC(=O)c3ccc(F)cc3)nc12` [Example 220, 4-Fluoro-N-(4-methoxy-7-thiophen-2-yl-benzothiazol-2-yl)-benzamide], the melting point was in the range of 242 to 250 °C.

With `COCCN(C)Cc1ccc(C(=O)Nc2nc3c(OC)ccc(-c4csc(C)n4)c3s2)cc1` [Example 242, 4-{[(2-Methoxy-ethyl)-methyl-amino]-methyl}-N-[4-methoxy-7-(2-methyl-thiazol-4-yl)-benzothiazol-2-yl]-benzamide], the melting point was 140 to 145 °C.

In the case of `COc1ccc(-c2csc(N3CCCC3)n2)c2sc(NC(=O)c3ccnc(C)c3)nc12` [Example 255, N-[4-Methoxy-7-(2-pyrrolidin-1-yl-thiazol-4-yl)-benzothiazol-2-yl]-2-methyl-isonicotinamide], the melting point was in the range of 195 to 215 °C.
